Measured values as given in PubChem BioAssay (NCI).
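Step 1: Grow cells in 96-well plates. Step 2: Expose to compound for 48 hours at 5 concentrations. Step 3: Interpolate endpoints linearly; if unreached, use highest concentration. Here, GI50 denotes the concentration required for 50% inhibition of growth. The concentration for full growth arrest is given as TGI.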

tested on: NCI-H226 lung; experiment: NCI tumour cell line growth inhibition, 48 h

| SMILES | TGI | GI50 |
| --- | --- | --- |
| CC1NC(=O)C(C)C(c2ccccc2)N(N=O)C1c1ccccc1 (stereo not given) | > 100 µM | – |
| O=C1OC(c2ccccc2)=N/C1=C\c1ccc([N+](=O)[O-])cc1 | 18.9 µM | – |
| O=C(O)Cc1ccc([N+](=O)[O-])cc1[N+](=O)[O-] | > 100 µM | – |
| COc1cc(/C=C2\CN(S(=O)(=O)c3ccc(C)cc3)C/C(=C\c3cc(CN4CCCC4)c(O)c(OC)c3)C2=O)cc(CN2CCCC2)c1O | 3.16 µM | 1.63 µM |
| Cc1ccc(C(=O)OC(C(=O)O)C(OC(=O)c2ccc(C)cc2)C(=O)O)cc1 (stereo not given) (tested in a mixture with another compound) | 24.8 µM | – |

tested on: NCI-H460 lung; experiment: NCI tumour cell line growth inhibition, 48 h

| SMILES | TGI |
| --- | --- |
| O=C(CC1Sc2ccccc2NC1=O)Nc1ccccc1[N+](=O)[O-] (stereo not given) | > 100 µM |
| CCOC(=O)c1csc(NC(=O)CN2CCCC2)n1 | > 100 µM |
| CCn1cnc2c(=S)nc(N)[nH]c21 | > 100 µM |
| CC1NC(=O)C(C)C(c2ccccc2)N(N=O)C1c1ccccc1 (stereo not given) | > 100 µM |
| O=C1OC(c2ccccc2)=N/C1=C\c1ccc([N+](=O)[O-])cc1 | > 100 µM |
| CO[C@](C(=O)OC[C@H]1[C@@H](COC(C)=O)[C@@H]2O[C@H]1c1cc3c(cc12)OCO3)(c1ccccc1)C(F)(F)F | 49.6 µM |
| O=C(O)Cc1ccc([N+](=O)[O-])cc1[N+](=O)[O-] | > 100 µM |
| CON(C)C(=O)C(Cc1ccccc1)NC(=O)OCc1ccccc1 (stereo not given) | > 100 µM |
| Cc1ccc(C(=O)OC(C(=O)O)C(OC(=O)c2ccc(C)cc2)C(=O)O)cc1 (stereo not given) (tested in a mixture with another compound) | 10.3 µM |

tested on: RPMI-8226 leukemia; experiment: NCI tumour cell line growth inhibition, 48 h

| SMILES | TGI | GI50 |
| --- | --- | --- |
| O=C(CC1Sc2ccccc2NC1=O)Nc1ccccc1[N+](=O)[O-] (stereo not given) | > 100 µM | – |
| CCOC(=O)c1csc(NC(=O)CN2CCCC2)n1 | > 100 µM | – |
| CCn1cnc2c(=S)nc(N)[nH]c21 | > 100 µM | – |
| CC1NC(=O)C(C)C(c2ccccc2)N(N=O)C1c1ccccc1 (stereo not given) | > 100 µM | – |
| O=C1OC(c2ccccc2)=N/C1=C\c1ccc([N+](=O)[O-])cc1 | > 100 µM | – |
| CO[C@](C(=O)OC[C@H]1[C@@H](COC(C)=O)[C@@H]2O[C@H]1c1cc3c(cc12)OCO3)(c1ccccc1)C(F)(F)F | 38.7 µM | – |
| O=C(O)Cc1ccc([N+](=O)[O-])cc1[N+](=O)[O-] | > 100 µM | – |
| CON(C)C(=O)C(Cc1ccccc1)NC(=O)OCc1ccccc1 (stereo not given) | > 100 µM | – |
| COc1cc(/C=C2\CN(S(=O)(=O)c3ccc(C)cc3)C/C(=C\c3cc(CN4CCCC4)c(O)c(OC)c3)C2=O)cc(CN2CCCC2)c1O | 3.17 µM | 1.14 µM |
| Cc1ccc(C(=O)OC(C(=O)O)C(OC(=O)c2ccc(C)cc2)C(=O)O)cc1 (stereo not given) (tested in a mixture with another compound) | 9.23 µM | – |

tested on: SF-268 CNS; experiment: NCI tumour cell line growth inhibition, 48 h

| SMILES | TGI |
| --- | --- |
| O=C(CC1Sc2ccccc2NC1=O)Nc1ccccc1[N+](=O)[O-] (stereo not given) | > 100 µM |
| CCOC(=O)c1csc(NC(=O)CN2CCCC2)n1 | > 100 µM |
| CCn1cnc2c(=S)nc(N)[nH]c21 | > 100 µM |
| CC1NC(=O)C(C)C(c2ccccc2)N(N=O)C1c1ccccc1 (stereo not given) | > 100 µM |
| O=C1OC(c2ccccc2)=N/C1=C\c1ccc([N+](=O)[O-])cc1 | > 100 µM |
| CO[C@](C(=O)OC[C@H]1[C@@H](COC(C)=O)[C@@H]2O[C@H]1c1cc3c(cc12)OCO3)(c1ccccc1)C(F)(F)F | 77.1 µM |
| O=C(O)Cc1ccc([N+](=O)[O-])cc1[N+](=O)[O-] | > 100 µM |
| CON(C)C(=O)C(Cc1ccccc1)NC(=O)OCc1ccccc1 (stereo not given) | > 100 µM |
| Cc1ccc(C(=O)OC(C(=O)O)C(OC(=O)c2ccc(C)cc2)C(=O)O)cc1 (stereo not given) (tested in a mixture with another compound) | 28.3 µM |

tested on: SN12C renal; experiment: NCI tumour cell line growth inhibition, 48 h

| SMILES | TGI | GI50 |
| --- | --- | --- |
| O=C(CC1Sc2ccccc2NC1=O)Nc1ccccc1[N+](=O)[O-] (stereo not given) | > 100 µM | – |
| CCn1cnc2c(=S)nc(N)[nH]c21 | > 100 µM | – |
| CC1NC(=O)C(C)C(c2ccccc2)N(N=O)C1c1ccccc1 (stereo not given) | > 100 µM | – |
| O=C1OC(c2ccccc2)=N/C1=C\c1ccc([N+](=O)[O-])cc1 | > 100 µM | – |
| CO[C@](C(=O)OC[C@H]1[C@@H](COC(C)=O)[C@@H]2O[C@H]1c1cc3c(cc12)OCO3)(c1ccccc1)C(F)(F)F | > 100 µM | – |
| O=C(O)Cc1ccc([N+](=O)[O-])cc1[N+](=O)[O-] | > 100 µM | – |
| CON(C)C(=O)C(Cc1ccccc1)NC(=O)OCc1ccccc1 (stereo not given) | > 100 µM | – |
| COc1cc(/C=C2\CN(S(=O)(=O)c3ccc(C)cc3)C/C(=C\c3cc(CN4CCCC4)c(O)c(OC)c3)C2=O)cc(CN2CCCC2)c1O | 2.8 µM | 1.24 µM |
| Cc1ccc(C(=O)OC(C(=O)O)C(OC(=O)c2ccc(C)cc2)C(=O)O)cc1 (stereo not given) (tested in a mixture with another compound) | 32 µM | – |
| CCCCCCOc1ccc(/C=N/Nc2cc(C)nc3ccc(Cl)cc23)cc1 | 3.18 µM | 1.69 µM |

tested on: UACC-257 melanoma; experiment: NCI tumour cell line growth inhibition, 48 h

| SMILES | TGI | GI50 |
| --- | --- | --- |
| O=C(CC1Sc2ccccc2NC1=O)Nc1ccccc1[N+](=O)[O-] (stereo not given) | > 100 µM | – |
| CCOC(=O)c1csc(NC(=O)CN2CCCC2)n1 | > 100 µM | – |
| CCn1cnc2c(=S)nc(N)[nH]c21 | > 100 µM | – |
| CC1NC(=O)C(C)C(c2ccccc2)N(N=O)C1c1ccccc1 (stereo not given) | > 100 µM | – |
| O=C1OC(c2ccccc2)=N/C1=C\c1ccc([N+](=O)[O-])cc1 | > 100 µM | – |
| CO[C@](C(=O)OC[C@H]1[C@@H](COC(C)=O)[C@@H]2O[C@H]1c1cc3c(cc12)OCO3)(c1ccccc1)C(F)(F)F | > 100 µM | – |
| O=C(O)Cc1ccc([N+](=O)[O-])cc1[N+](=O)[O-] | > 100 µM | – |
| CON(C)C(=O)C(Cc1ccccc1)NC(=O)OCc1ccccc1 (stereo not given) | > 100 µM | – |
| COc1cc(/C=C2\CN(S(=O)(=O)c3ccc(C)cc3)C/C(=C\c3cc(CN4CCCC4)c(O)c(OC)c3)C2=O)cc(CN2CCCC2)c1O | 3.17 µM | 1.53 µM |
| Cc1ccc(C(=O)OC(C(=O)O)C(OC(=O)c2ccc(C)cc2)C(=O)O)cc1 (stereo not given) (tested in a mixture with another compound) | 13.7 µM | – |
| CCCCCCOc1ccc(/C=N/Nc2cc(C)nc3ccc(Cl)cc23)cc1 | 3.26 µM | 1.61 µM |
